Assay results from US7989449B2, “4,5-dihydro-oxazol-2-yl amine derivatives” (Hoffman-La Roche Inc., priority 2008, dated 2011).
Structures can show the parent of a compound that is named as a salt.

Target: T1, 6his-tagged full length BACE 1 from SF9 cells (Homo sapiens, UniProt P56817)
T1 construct: 6his-tagged full length BACE 1 from SF9 cells; made in house; host or cells: Sf9 insect cells
Test: BACE1 MR121 protease assay
Format: biochemical
Settings: 30 nM 6his-BACE-1, 300 nM substrate peptide WSEVNLDAEFRC-MR121, Na-acetate pH 4.0, fluorescence
Protocol: Assay plate: 384 well microtiter plate, Corning clear, flat bottom, non binding surface
Assaybuffer: 100 mM Na-acetate pH 4.0, 20 mM EDTA, 0.05% BSA
BACE-1: 6his-tagged full length BACE 1 from SF9 cells
Substrate peptide: WSEVNLDAEFRC-MR121
BACE1 MR121 protease assay
39 μl of a 38 nM 6his-BACE-1 solution in assay buffer (final conc. in the assay: 30 nM) were pipetted into the assay plate. 1 μl of a concentration of a potential inhibitor in dimethylsulfoxide was added to the enzyme and incubated for 10 min. Finally, 10 μl of a 1.5 μM solution of the substrate in assay buffer (final conc. in the assay: 300 nM) was added to start the enzymatic reaction. After strong mixing for 2 min the enzymatic reaction was followed by measuring the fluorescence intensity every two minutes for 15 min on a suitable fluorescence reader. […] The slope was calculated from the linear part of the kinetic as a measure of the activity of BACE-1. A range of concentrations of the potential inhibitor was used to generate data for calculating the concentration of inhibitor resulting in 50% of the effect (e.g. IC50, the concentration of the compound inhibiting the BACE-1 activity by 50%).

T1 sequence (P56817 46-501): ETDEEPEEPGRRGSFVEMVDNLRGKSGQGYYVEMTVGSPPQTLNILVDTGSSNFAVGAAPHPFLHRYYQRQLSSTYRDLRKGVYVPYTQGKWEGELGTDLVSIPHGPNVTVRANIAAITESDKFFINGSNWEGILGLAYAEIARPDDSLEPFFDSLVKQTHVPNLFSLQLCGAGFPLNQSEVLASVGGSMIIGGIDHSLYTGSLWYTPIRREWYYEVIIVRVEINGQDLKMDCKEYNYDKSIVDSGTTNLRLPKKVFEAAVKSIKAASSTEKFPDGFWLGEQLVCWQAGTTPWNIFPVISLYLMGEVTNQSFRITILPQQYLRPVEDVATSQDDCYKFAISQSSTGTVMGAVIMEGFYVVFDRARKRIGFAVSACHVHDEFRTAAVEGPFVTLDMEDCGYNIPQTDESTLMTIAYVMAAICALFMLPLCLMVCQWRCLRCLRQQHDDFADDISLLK

Question: For `Cc1cc(C2(c3cccc(-c4cccnc4F)c3)COC(N)=N2)ccc1OC(F)F` (racemic) [Example 98, (RS)-4-(4-Difluoromethoxy-3-methyl-phenyl)-4-[3-(2-fluoro-pyridin-3-yl)-phenyl]-4,5-dihydro-oxazol-2-ylamine formate], which IC50 is on record?
Answer: 0.15 µM

Question: `Cc1cc(C2(c3cccc(-c4cccc(Cl)c4)c3)COC(N)=N2)ccc1OC(F)F` (racemic) [Example 99, (RS)-4-(3′-Chloro-biphenyl-3-yl)-4-(4-difluoromethoxy-3-methyl-phenyl)-4,5-dihydro-oxazol-2-ylamine formate] was tested. Which IC50 did it give?
Answer: 0.17 µM

Question: How did the IC50 turn out when `Cc1cc(C2(c3cccc(-c4cncnc4)c3)COC(N)=N2)ccc1OC(F)F` (racemic) [Example 100, (RS)-4-(4-Difluoromethoxy-3-methyl-phenyl)-4-(3-pyrimidin-5-yl-phenyl)-4,5-dihydro-oxazol-2-ylamine formate] was run?
Answer: 0.12 µM

Question: `COc1cncc(-c2cccc(C3(c4ccc(OC(F)F)c(C)c4)COC(N)=N3)c2)c1` (racemic) [Example 101, (RS)-4-(4-Difluoromethoxy-3-methyl-phenyl)-4-[3-(5-methoxy-pyridin-3-yl)-phenyl]-4,5-dihydro-oxazol-2-ylamine formate] was tested. Which IC50 did it give?
Answer: 0.06 µM

Question: How did the IC50 turn out when `Cc1cc(C2(c3cccc(-c4cncc(F)c4)c3)COC(N)=N2)ccc1OC(F)F` (racemic) [Example 102, (RS)-4-(4-Difluoromethoxy-3-methyl-phenyl)-4-[3-(5-fluoro-pyridin-3-yl)-phenyl]-4,5-dihydro-oxazol-2-ylamine formate] was run?
Answer: 0.21 µM

Question: For `Cc1cncc(-c2cccc(C3(c4ccc(OC(F)F)c(C)c4)COC(N)=N3)c2)c1` (racemic) [Example 103, (RS)-4-(4-Difluoromethoxy-3-methyl-phenyl)-4-[3-(5-methyl-pyridin-3-yl)-phenyl]-4,5-dihydro-oxazol-2-ylamine formate], which IC50 is on record?
Answer: 0.32 µM

Question: With `Cc1cnc(F)c(-c2cccc(C3(c4ccc(OC(F)F)c(C)c4)COC(N)=N3)c2)c1` (racemic) [Example 104, (RS)-4-(4-Difluoromethoxy-3-methyl-phenyl)-4-[3-(2-fluoro-5-methyl-pyridin-3-yl)-phenyl]-4,5-dihydro-oxazol-2-ylamine formate] as the compound, how does the IC50 read?
Answer: 0.13 µM

Question: With `COc1ccc(F)c(-c2cccc(C3(c4ccc(OC(F)F)c(C)c4)COC(N)=N3)c2)c1` (racemic) [Example 105, (RS)-4-(4-Difluoromethoxy-3-methyl-phenyl)-4-(2′-fluoro-5′-methoxy-biphenyl-3-yl)-4,5-dihydro-oxazol-2-ylamine formate] as the compound, how does the IC50 read?
Answer: 0.13 µM

Question: With `COc1ccc(C2(c3ccc(F)c(-c4cncc(Cl)c4)c3)COC(N)=N2)cc1Cl` (racemic) [Example 108, (RS)-4-(3-Chloro-4-methoxy-phenyl)-4-[3-(5-chloro-pyridin-3-yl)-4-fluoro-phenyl]-4,5-dihydro-oxazol-2-ylamine formate] as the compound, how does the IC50 read?
Answer: 0.29 µM

Question: For `COc1ccc(C2(c3ccc(F)c(-c4cccnc4)c3)COC(N)=N2)cc1Cl` (racemic) [Example 109, (RS)-4-(3-Chloro-4-methoxy-phenyl)-4-(4-fluoro-3-pyridin-3-yl-phenyl)-4,5-dihydro-oxazol-2-ylamine formate], which IC50 is on record?
Answer: 0.77 µM

Question: `COc1cncc(-c2cc(C3(c4ccc(OC)c(Cl)c4)COC(N)=N3)ccc2F)c1` (racemic) [Example 111, (RS)-4-(3-Chloro-4-methoxy-phenyl)-4-[4-fluoro-3-(5-methoxy-pyridin-3-yl)-phenyl]-4,5-dihydro-oxazol-2-ylamine formate] was tested. Which IC50 did it give?
Answer: 0.16 µM

Question: `COc1ccc(C2(c3ccc(F)c(-c4cncc(F)c4)c3)COC(N)=N2)cc1Cl` (racemic) [Example 112, (RS)-4-(3-Chloro-4-methoxy-phenyl)-4-[4-fluoro-3-(5-fluoro-pyridin-3-yl)-phenyl]-4,5-dihydro-oxazol-2-ylamine] was tested. Which IC50 did it give?
Answer: 0.64 µM

Question: For `COc1ccc(C2(c3ccc(F)c(-c4cc(C)cnc4F)c3)COC(N)=N2)cc1Cl` (racemic) [Example 113, (RS)-4-(3-Chloro-4-methoxy-phenyl)-4-[4-fluoro-3-(2-fluoro-5-methyl-pyridin-3-yl)-phenyl]-4,5-dihydro-oxazol-2-ylamine], which IC50 is on record?
Answer: 0.73 µM

Question: How did the IC50 turn out when `COc1ccc(F)c(-c2cc(C3(c4ccc(OC)c(Cl)c4)COC(N)=N3)ccc2F)c1` (racemic) [Example 114, (RS)-4-(3-Chloro-4-methoxy-phenyl)-4-(6,2′-difluoro-5′-methoxy-biphenyl-3-yl)-4,5-dihydro-oxazol-2-ylamine formate] was run?
Answer: 0.66 µM

Question: For `NC1=NC(c2cccc(-c3cncc(Cl)c3)c2)(c2ccc(OC(F)F)c(F)c2)CO1` (racemic) [Example 115, (RS)-4-[3-(5-Chloro-pyridin-3-yl)-phenyl]-4-(4-difluoromethoxy-3-fluoro-phenyl)-4,5-dihydro-oxazol-2-ylamine formate], which IC50 is on record?
Answer: 0.24 µM

Question: Which IC50 does the source give for `COc1cncc(-c2cccc(C3(c4ccc(OC(F)F)c(Cl)c4)COC(N)=N3)c2)c1` (racemic) [Example 117, (RS)-4-(3-Chloro-4-difluoromethoxy-phenyl)-4-[3-(5-methoxy-pyridin-3-yl)-phenyl]-4,5-dihydro-oxazol-2-ylamine formate] here?
Answer: 0.08 µM

Question: Which IC50 does the source give for `NC1=NC(c2cccc(-c3cncnc3)c2)(c2ccc(OC(F)F)c(Cl)c2)CO1` (racemic) [Example 118, (RS)-4-(3-Chloro-4-difluoromethoxy-phenyl)-4-(3-pyrimidin-5-yl-phenyl)-4,5-dihydro-oxazol-2-ylamine formate] here?
Answer: 0.2 µM

Question: With `Cc1cc(C2(c3ccc(F)c(-c4cccnc4)c3)COC(N)=N2)ccc1OC(F)F` (racemic) [Example 119, (RS)-4-(4-Difluoromethoxy-3-methyl-phenyl)-4-(4-fluoro-3-pyridin-3-yl-phenyl)-4,5-dihydro-oxazol-2-ylamine formate] as the compound, how does the IC50 read?
Answer: 0.13 µM

Question: With `Cc1cc(C2(c3ccc(F)c(-c4cncnc4)c3)COC(N)=N2)ccc1OC(F)F` (racemic) [Example 120, (RS)-4-(4-Difluoromethoxy-3-methyl-phenyl)-4-(4-fluoro-3-pyrimidin-5-yl-phenyl)-4,5-dihydro-oxazol-2-ylamine formate] as the compound, how does the IC50 read?
Answer: 0.09 µM

Question: `COc1cncc(-c2cc(C3(c4ccc(OC(F)F)c(C)c4)COC(N)=N3)ccc2F)c1` (racemic) [Example 121, (RS)-4-(4-Difluoromethoxy-3-methyl-phenyl)-4-[4-fluoro-3-(5-methoxy-pyridin-3-yl)-phenyl]-4,5-dihydro-oxazol-2-ylamine formate] was tested. Which IC50 did it give?
Answer: 0.05 µM

Question: How did the IC50 turn out when `Cc1cc(C2(c3ccc(F)c(-c4cncc(F)c4)c3)COC(N)=N2)ccc1OC(F)F` (racemic) [Example 122, (RS)-4-(4-Difluoromethoxy-3-methyl-phenyl)-4-[4-fluoro-3-(5-fluoro-pyridin-3-yl)-phenyl]-4,5-dihydro-oxazol-2-ylamine formate] was run?
Answer: 0.15 µM

Question: How did the IC50 turn out when `COc1ccc(F)c(-c2cc(C3(c4ccc(OC(F)F)c(C)c4)COC(N)=N3)ccc2F)c1` (racemic) [Example 123, (RS)-4-(6,2′-Difluoro-5′-methoxy-biphenyl-3-yl)-4-(4-difluoromethoxy-3-methyl-phenyl)-4,5-dihydro-oxazol-2-ylamine formate] was run?
Answer: 0.2 µM

Question: Which IC50 does the source give for `Cc1cc(OC(F)F)ccc1C1(c2cccc(-c3cncnc3)c2)COC(N)=N1` (racemic) [Example 129, (RS)-4-(4-Difluoromethoxy-2-methyl-phenyl)-4-(3-pyrimidin-5-yl-phenyl)-4,5-dihydro-oxazol-2-ylamine formate] here?
Answer: 0.5 µM

Question: With `COc1ccc(F)c(-c2cccc(C3(c4ccc(OC(F)F)cc4C)COC(N)=N3)c2)c1` (racemic) [Example 130, (RS)-4-(4-Difluoromethoxy-2-methyl-phenyl)-4-(2′-fluoro-5′-methoxy-biphenyl-3-yl)-4,5-dihydro-oxazol-2-ylamine formate] as the compound, how does the IC50 read?
Answer: 0.49 µM

Question: For `Cc1cnc(F)c(-c2cccc(C3(c4ccc(OC(F)F)cc4C)COC(N)=N3)c2)c1` (racemic) [Example 131, (RS)-4-(4-Difluoromethoxy-2-methyl-phenyl)-4-[3-(2-fluoro-5-methyl-pyridin-3-yl)-phenyl]-4,5-dihydro-oxazol-2-ylamine formate], which IC50 is on record?
Answer: 0.46 µM

Question: How did the IC50 turn out when `NC1=NC(c2cccc(-c3cncc(F)c3)c2)(c2ccc(OC(F)F)cc2F)CO1` (racemic) [Example 142, (RS)-4-(4-Difluoromethoxy-2-fluoro-phenyl)-4-[3-(5-fluoro-pyridin-3-yl)-phenyl]-4,5-dihydro-oxazol-2-ylamine formate] was run?
Answer: 0.84 µM

Question: Which IC50 does the source give for `Cc1cc(OC(F)F)ccc1C1(c2cccc(-c3cncc(F)c3)c2)COC(N)=N1` (racemic) [Example 145, (RS)-4-(4-Difluoromethoxy-2-methyl-phenyl)-4-[3-(5-fluoro-pyridin-3-yl)-phenyl]-4,5-dihydro-oxazol-2-ylamine formate] here?
Answer: 0.72 µM

Question: With `COc1cncc(-c2cccc(C3(c4ccc(OC(F)F)cc4C)COC(N)=N3)c2)c1` (racemic) [Example 146, (RS)-4-(4-Difluoromethoxy-2-methyl-phenyl)-4-[3-(5-methoxy-pyridin-3-yl)-phenyl]-4,5-dihydro-oxazol-2-ylamine formate] as the compound, how does the IC50 read?
Answer: 0.2 µM

Question: Which IC50 does the source give for `Cc1cc(OC(F)F)ccc1C1(c2cccc(-c3cccc(Cl)c3)c2)COC(N)=N1` (racemic) [Example 149, (RS)-4-(3′-Chloro-biphenyl-3-yl)-4-(4-difluoromethoxy-2-methyl-phenyl)-4,5-dihydro-oxazol-2-ylamine formate] here?
Answer: 0.96 µM
